Tests used:
[1] = test system: Diabetes Induced with Alloxan; experiment: Blood sugar levels in early stages of diabetes induced with alloxan; type: in vivo, Wistar rats; conditions: alloxan-diabetic rats; for Blood sugar level, 0 day: day 0; for Blood sugar level, 0 day / Blood sugar level, 15 day / Blood sugar level, 30 day: doses: test compound 60 mg/kg, fenugreek seed powder 2 g/kg, crude alcohol extract 1 g/kg, pioglitazone 5 mg/kg; for Change in BSL (%): day 0 to day 30, numbers are printed as DECREASE, doses as in the row (60 mg/kg, 2 g/kg, 1 g/kg, 5 mg/kg); for Blood sugar level, 15 day: day 15 of treatment; for Blood sugar level, 30 day: day 30 of treatment
Method: (§1) Male Wistar rats were injected with alloxan monohydrate (160 mg/kg i.p.) to induce diabetes. After 48 hours of injection blood glucose levels were determined using glucose estimation kits. Animals with blood glucose levels above 300 mg/dl were selected and divided into four groups of 6 rats in each group.
Group 1: Non-Diabetic Control
Group 2: Diabetes Control
Group 3: Test Compound (60 mg/kg)
Group 4: Pioglitazone (Standard Drug) (5 mg/kg)
(§2) The animals were given respective drug solutions in stipulated dose, for 30 days. On the 0th, 15th and 30th day of treatment, the blood sugar levels and body weights were analyzed.
Serum was obtained by centrifuging the blood obtained by retero-orbital blood withdrawal at 7000 rpm at 4° C. for 15 min. The serum obtained was collected for Blood sugar level determinations. The below table provides data on blood glucose levels of various groups.

[2] = Body weight in early stages of diabetes induced with alloxan; type: in vivo, Wistar rats; conditions: alloxan-diabetic rats, test compound 60 mg/kg, pioglitazone 5 mg/kg; for Body weight, 0 day: day 0; for % Change in Body weight: day 0 to day 30, numbers are printed as INCREASE; for Body weight, 15 day: day 15; for Body weight, 30 day: day 30
Method: as §1, §2
There was a significant decrease in body weight in diabetic group as compared to non diabetic group. In the test compound treated group the body weight on 0 day was 185.16 & 240.83 on 30 day. […] There was a 29% increase in weight in the animals treated with the test compound that was an excellent result when compared to the 9% decrease in body weight of the untreated diabetic animals. The below table provides the percentage change in body weight of groups treated with respective treatments.

[3] = Body composition (anabolic/androgenic activity) in castrated immature rats, 4 weeks of treatment; type: in vivo, Wistar rats
Text: Immature male Wistar rats weighing about 55 gm (±5 gm) were selected for the study. These rats were anesthetized by anesthetic ether and castrated. After 4 weeks of treatment, animals were sacrificed and the seminal vesicles, the ventral prostate, and the muscle levator ani carefully dissected and weighed. Body weight of the animals was registered at the beginning and at the end of the experiment. Increase in weight of seminal vesicles and ventral prostate indicates androgenic activity, whereas increase in weight of levator ani muscles was considered to indicate anabolic activity.

[4] = test system: serum testosterone; experiment: Serum testosterone by radioimmunoassay in castrated immature rats after four weeks of treatment; type: in vivo, Wistar rats; conditions: daily treatment, 35 mg/kg p.o., RIA
Method: In addition, to rule out any possibility of androgenic activity in the increase in body weight and muscle mass, the serum testosterone levels were measured.
Immature male Wistar rats weighing about 55 gm (±5gm) were selected for the study. These rats were anesthetized by anesthetic ether and castrated. After four weeks of treatment, the blood was withdrawn from the rats by retro orbital puncture method and analyzed for serum testosterone, which was measured with the help of radioimmunoassay (RIA) kit.

[5] = Double-blind, placebo-controlled clinical study: body composition (body fat) by bioelectric impedance and hydrostatic weighing; type: in vivo, human; conditions: volunteers, 500 mg supplementation, 8 weeks, resistance training 4 times/week
Method: (§3) Subsequently, a double-blind, placebo-controlled study in 49 pre-trained volunteers was conducted to assess the safety and efficacy of the test compound. This 2 month study was conducted with supplementation of 500 mg of the test compound and the volunteers were on resistance training 4 times/week. During this study the effect of the test compound on body composition (fat content) and strength were evaluated.
Body density was analyzed by bioelectric impedance and hydrostatic weighing. Based on these parameters fat free mass was calculated. From the FIG. 5 it is concluded that during the study period of 8 weeks, the test product reduced the body fat by 12%. This is a significant reduction.

[6] = Double-blind, placebo-controlled clinical study: strength (isotonic bench and leg press); type: in vivo, human; conditions: volunteers, 500 mg, 2 month study, weight lifted
Method: as §3
Since this product was used to increase muscle mass, the effect of the test compound on the strength of the volunteers was evaluated. This was done by conducting isotonic repetitions of bench and leg press exercises. An increase in strength was determined based on an increase in weight lifted during these two exercises.

[7] = test system: 3T3-L1 cells; experiment: Deoxy-D-Glucose, 2-(1-14C) uptake in 3T3-L1 cells (insulin-like action); type: cell-based
Method: This example studies the time and dose dependant uptake of Deoxy-D-Glucose, 2-(1-^14C) uptake in 3T3-L1 cells treated with the test compound. 3T3-L1 cells were cultured (DMEM+FBS) in a 24 well plate and were treated with a 5 μg/ml and a 50 μg/ml dose of the test compound for 10 or 30 min. Cells treated with 100 nM insulin was used as a positive control. Radioactivity (cpm) was measured with TopCount (Packard).

[8] = Levator ani muscle mass in alloxan-diabetic animals; type: in vivo, Wistar rats; conditions: alloxan-diabetic animals on treatment, FIG. 8
Text: A subsequent study was done to evaluate the impact of the increase in weight on the muscle content of the animals.
The levitor ani muscles of these animals were checked for the drugs effect on muscle mass.

Molecule: CCc1ccc(CCOc2ccc(CC3SC(=O)NC3=O)cc2)nc1 (centres unmarked) [Pioglitazone, reference compound]
- Blood sugar level, 0 day [1]: 438.66 ± 6.37 mg/dL
- Change in BSL (%) [1]: 35.8% DECREASE
- Blood sugar level, 15 day [1]: 376.33 ± 7.29 mg/dL
- Blood sugar level, 30 day [1]: 281 ± 5.92 mg/dL
- Body weight, 0 day [2]: 165 ± 5.41 gm
- % Change in Body weight [2]: 25% INCREASE
- Body weight, 15 day [2]: 198.5 ± 6.45 gm
- Body weight, 30 day [2]: 207.83 ± 4.49 gm

Molecule: OCC1O[C@H](OCC2O[C@@H](O[C@@H]3C(CO[C@H]4OC(CO)[C@H](O)C(O)C4O)O[C@@H](O)C(O)C3O)C(O)C(O)[C@@H]2O)C(O)C(O)[C@H]1O (some centres unmarked) [test compound]
- weight of the levator ani muscles (anabolic activity) ([3]; 4 weeks of treatment): significant increase
- weights of organs of the male reproductive system (prostate, seminal vesicle and penis); androgenic activity ([3]; 4 weeks, 10 and 35 mg/kg): did not increase
- change in body weight ([3]; four-week treatment, 10 mg/kg p.o): did not cause any change
- body weight compared with control group ([3]; four-week treatment, 35 mg/kg p.o): significant rise
- total serum testosterone levels [4]: no significant increase
- reduction of body fat [5]: 12%
- increase in strength compared to placebo, bench press [6]: 100%
- increase in strength compared to placebo, leg press [6]: 80%
- glucose uptake ([7]; dose of 5 μg/ml, 10 or 30 min): enhanced glucose uptake
- Blood sugar level, 0 day [1]: 416.5 ± 14.42 mg/dL
- Change in BSL (%) [1]: 55%
- Change in BSL (%) ([1]; listed as Test Compound): 55% DECREASE
- Blood sugar level, 15 day [1]: 294.5 ± 12.22 mg/dL
- Blood sugar level, 30 day [1]: 187 ± 9.33 mg/dL
- Body weight, 0 day [2]: 185.16 gm
- Body weight, 0 day ([2]; listed as Test Compound): 185.16 ± 6.53 gm
- % Change in Body weight [2]: 29%
- % Change in Body weight ([2]; listed as Test Compound): 29% INCREASE
- Body weight, 15 day [2]: 215.83 ± 6.05 gm
- Body weight, 30 day [2]: 240.83 gm
- Body weight, 30 day ([2]; listed as Test Compound): 240.83 ± 6.42 gm
- muscle mass (levitor ani muscles) [8]: significant increase

Molecule: C[C@]12CC[C@H]3[C@@H](CCC4=CC(=O)CC[C@@]43C)[C@@H]1CC[C@@H]2O [testosterone, reference compound]
- body weight compared with control group ([3]; four weeks, 10 mg s.c biweekly): significant rise

Molecule: Insulin [reference compound]
- stimulation of glucose uptake ([7]; 100 nM insulin, 10 min): 1.74 fold

— US8288364B2, “Botanically derived composition and a process thereof” (Indus Biotech Private Limited, priority 2008, dated 2012)
